Experimental data: patent US12297238B2, “FimH mutants, compositions therewith and use thereof” (Janssen Pharmaceuticals, Inc., priority 2021, dated 2025)

Key:
Conditions in all cases: SPR, HBS-N pH 7.4, single cycle kinetics
[1] = target: E. coli FimH lectin domain (FimHLD 23-10, SEQ ID NO: 1) variant R60P (Escherichia coli, UniProt P08191, R81P/V48A)
Description: (§1) To gain a detailed insight into the binding affinity and kinetics of the interaction of FimH lectin domain variants with the n-Heptyl-α-D-mannopyranoside ligand, surface plasmon resonance (SPR) measurements were performed. In brief, the FimH variants were titrated into the Mannoside ligand 5 surface (Rabbani S et al, J Biol. Chem., 2018, 293(5):1835-1849) with the top concentrations of either 3 or 10 μM in HBS-N(0.01 M HEPES, pH 7.4, 0.15 M NaCl, 3 mM EDTA, 0.05% surfactant P20). The proteins were injected from 0.12 to 10 μM or 0.036 to 3.0 μM using a single cycle kinetics injection.
(§2) These mutants were taken as positive controls. […] Additionally, wild-type (WT) FimH lectin domain was taken along as a negative control.
(§3) The variants affinity for binding to mannose was assessed using SPR.

[2] = target: E. coli FimH lectin domain (FimHLD 23-10, SEQ ID NO: 1) variant Q133K (Escherichia coli, UniProt P08191, Q154K/V48A)
Chain of E. coli FimH lectin domain (FimHLD 23-10, SEQ ID NO: 1) variant Q133K (P08191 22-180 V48A/Q154K): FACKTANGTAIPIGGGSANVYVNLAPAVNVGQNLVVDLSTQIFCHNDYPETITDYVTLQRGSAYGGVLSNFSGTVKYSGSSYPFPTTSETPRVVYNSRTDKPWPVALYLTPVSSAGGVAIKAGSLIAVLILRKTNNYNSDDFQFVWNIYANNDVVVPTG
Description: as §1, §2, §3

[3] = target: E. coli FimH lectin domain (FimHLD 23-10, SEQ ID NO: 1) variant F144V/F71Y (Escherichia coli, UniProt P08191, F165V/F92Y/V48A)
Chain of E. coli FimH lectin domain (FimHLD 23-10, SEQ ID NO: 1) variant F144V/F71Y (P08191 22-180 V48A/F92Y/F165V): as the sequence (P08191 22-180 V48A/Q154K) above, with F71Y, K133Q, F144V counted along it
Description: as §1, §2, §3

[4] = target: E. coli FimH lectin domain (FimHLD 23-10, SEQ ID NO: 1) variant F144V (Escherichia coli, UniProt P08191, F165V/V48A)
Chain of E. coli FimH lectin domain (FimHLD 23-10, SEQ ID NO: 1) variant F144V (P08191 22-180 V48A/F165V): as the sequence (P08191 22-180 V48A/Q154K) above, with K133Q, F144V counted along it
Description: as §1, §2, §3

[5] = target: E. coli FimH lectin domain (FimHLD 23-10, SEQ ID NO: 1) variant F71Y (Escherichia coli, UniProt P08191, F92Y/V48A)
Chain of E. coli FimH lectin domain (FimHLD 23-10, SEQ ID NO: 1) variant F71Y (P08191 22-180 V48A/F92Y): as the sequence (P08191 22-180 V48A/Q154K) above, with F71Y, K133Q counted along it
Description: as §1, §2, §3

[6] = target: E. coli FimH lectin domain (FimHLD 23-10, SEQ ID NO: 1) variant R60P-Q133K (Escherichia coli, UniProt P08191, Q154K/R81P/V48A)
Chain of E. coli FimH lectin domain (FimHLD 23-10, SEQ ID NO: 1) variant R60P-Q133K (P08191 22-180 V48A/R81P/Q154K): as the sequence (P08191 22-180 V48A/Q154K) above, with R60P counted along it
Description: as §1, §2, §3

Chain of E. coli FimH lectin domain (FimHLD 23-10, SEQ ID NO: 1) variant R60P (P08191 22-180 V48A/R81P): as the sequence (P08191 22-180 V48A/Q154K) above, with R60P, K133Q counted along it

CCCCCCCO[C@H]1O[C@H](CO)[C@@H](O)[C@H](O)[C@@H]1O [n-Heptyl-α-D-mannopyranoside]
Affinity (KD) [1]: low affinity
Affinity (KD) [2]: did not bind to mannoside at all
Affinity (KD) [3]: completely abolished
Affinity (KD) [4]: completely abolished
Affinity (KD) [5]: some affinity
Affinity (KD) [6]: did not bind to mannoside at all
